Drawing on patent US20230024096A1, “BIFUNCTIONAL COMPOUNDS FOR THE TREATMENT OF CANCER” (Hoffmann-La Roche Inc., priority 2019, published 2023), this text covers DC50 and Emax for seven compounds.

The target of the experiment is T1, SMARCA2 (Homo sapiens, UniProt P51531).
T1 construct: endogenous in cells; host or cells: HT1080 (CRISPR HiBiT knock-in clone, generated in house)
Put plainly: SMARCA2 HiBiT degradation assay (cellular). It is filed as cell-based. As to conditions: table head names A549; for DC50: 6 h incubation, HiBiT-tagged SMARCA2, luminescence read-out, read-out: HiBit A549 SMARCA2 IP (nM) 6 h; for Emax: A549, 6 h incubation, Emax = amount of residual protein remaining in the cell following compound treatment. In general terms: The HiBiT peptide binds its large partner to form an active luciferase.

T1 sequence (P51531 whole entry): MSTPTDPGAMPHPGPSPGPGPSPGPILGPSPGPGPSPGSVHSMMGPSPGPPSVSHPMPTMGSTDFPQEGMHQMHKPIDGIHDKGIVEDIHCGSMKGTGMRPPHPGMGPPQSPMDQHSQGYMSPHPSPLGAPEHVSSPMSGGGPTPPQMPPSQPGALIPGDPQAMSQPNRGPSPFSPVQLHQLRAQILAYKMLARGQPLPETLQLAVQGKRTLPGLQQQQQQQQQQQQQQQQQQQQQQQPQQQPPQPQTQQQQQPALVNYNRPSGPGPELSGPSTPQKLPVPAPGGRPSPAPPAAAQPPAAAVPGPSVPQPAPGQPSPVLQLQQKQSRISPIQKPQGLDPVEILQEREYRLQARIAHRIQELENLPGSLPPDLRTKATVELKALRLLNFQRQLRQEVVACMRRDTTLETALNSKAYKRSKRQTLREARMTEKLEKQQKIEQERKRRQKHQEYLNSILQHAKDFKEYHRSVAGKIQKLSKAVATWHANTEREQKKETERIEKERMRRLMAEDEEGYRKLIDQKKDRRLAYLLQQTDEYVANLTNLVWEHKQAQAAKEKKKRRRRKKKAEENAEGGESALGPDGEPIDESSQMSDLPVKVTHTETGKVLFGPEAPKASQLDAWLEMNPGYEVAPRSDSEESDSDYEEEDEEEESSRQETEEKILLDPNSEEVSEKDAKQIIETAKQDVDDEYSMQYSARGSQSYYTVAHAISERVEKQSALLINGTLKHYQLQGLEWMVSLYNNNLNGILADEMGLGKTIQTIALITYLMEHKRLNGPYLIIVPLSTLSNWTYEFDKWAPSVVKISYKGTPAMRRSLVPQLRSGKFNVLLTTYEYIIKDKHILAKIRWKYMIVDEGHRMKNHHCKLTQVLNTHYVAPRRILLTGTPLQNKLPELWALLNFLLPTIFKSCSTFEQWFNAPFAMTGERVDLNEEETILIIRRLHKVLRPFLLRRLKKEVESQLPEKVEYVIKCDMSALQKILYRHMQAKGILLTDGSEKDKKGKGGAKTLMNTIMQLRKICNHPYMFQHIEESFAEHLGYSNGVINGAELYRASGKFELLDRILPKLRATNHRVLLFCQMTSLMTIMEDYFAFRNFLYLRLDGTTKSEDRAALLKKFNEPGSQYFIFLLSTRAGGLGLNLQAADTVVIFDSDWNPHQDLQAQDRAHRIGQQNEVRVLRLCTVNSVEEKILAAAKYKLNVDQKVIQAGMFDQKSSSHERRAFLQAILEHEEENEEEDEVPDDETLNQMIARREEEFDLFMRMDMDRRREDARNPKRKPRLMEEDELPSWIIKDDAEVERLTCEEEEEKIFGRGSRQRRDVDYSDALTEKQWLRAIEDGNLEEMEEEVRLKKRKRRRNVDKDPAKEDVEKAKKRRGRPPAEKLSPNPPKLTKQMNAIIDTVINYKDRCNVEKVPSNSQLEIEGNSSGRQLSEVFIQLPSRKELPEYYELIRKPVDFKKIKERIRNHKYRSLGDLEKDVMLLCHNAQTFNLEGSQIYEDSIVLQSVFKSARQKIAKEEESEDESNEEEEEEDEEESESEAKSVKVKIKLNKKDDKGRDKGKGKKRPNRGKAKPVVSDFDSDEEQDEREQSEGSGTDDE

For orientation: Emax means the maximal effect, on the per cent scale that the assay sets. `Nc1nnc(-c2ccccc2O)cc1N1CC(Oc2cccc(C(=O)N3CCN(C(=O)CCCCCCCCCNc4cccc5c4C(=O)N(C4CCC(=O)NC4=O)C5=O)CC3)c2)C1` (stereo not shown) [Example 146, 4-[[10-[4-[3-[1-[3-amino-6-(2-hydroxyphenyl)pyridazin-4-yl]azetidin-3-yl]oxybenzoyl]piperazin-1-yl]-10-oxo-decyl]amino]-2-(2,6-dioxo-3-piperidyl)isoindoline-1,3-dione]: the DC50 turned out to be 126 nM and the Emax was determined as 41%. Regarding `Nc1nnc(-c2ccccc2O)cc1N1CC2CCC(C1)N2c1cccc(OCCN2CCN(C(=O)N3CC4(C3)CN(c3ccc5c(c3)C(=O)N(C3CCC(=O)NC3=O)C5=O)C4)CC2)c1` (racemic) [Example 69, rac-5-[2-[4-[2-[3-[3-[3-amino-6-(2-hydroxyphenyl)pyridazin-4-yl]-3,8-diazabicyclo[3.2.1]octan-8-yl]phenoxy]ethyl]piperazine-1-carbonyl]-2,6-diazaspiro[3.3]heptan-6-yl]-2-(2,6-dioxo-3-piperidyl)isoindoline-1,3-dione], the DC50 amounted to 16 nM and the Emax worked out at 48%. The matching figures for `Nc1nnc(-c2ccccc2O)cc1N1CC2CCC(C1)N2c1cccc(OCCN2CCN(C(=O)CN3CCC(c4ccc(NC5CCC(=O)NC5=O)cc4)CC3)CC2)c1` (racemic) [Example 79, rac-3-[4-[1-[2-[4-[2-[3-[3-[3-amino-6-(2-hydroxyphenyl)pyridazin-4-yl]-3,8-diazabicyclo[3.2.1]octan-8-yl]phenoxy]ethyl]piperazin-1-yl]-2-oxo-ethyl]-4-piperidyl]anilino]piperidine-2,6-dione]: 19 nM and 46%. Take `Nc1nnc(-c2ccccc2O)cc1N1CCC(C(=O)N2CCC(C(=O)N3CCN(c4ccc(C5CCC(=O)NC5=O)cc4)CC3)CC2)(c2ccccc2)CC1` (stereo not shown) [Example 176, 3-(4-(4-(1-(1-(3-amino-6-(2-hydroxyphenyl)pyridazin-4-yl)-4-phenylpiperidine-4-carbonyl)piperidine-4-carbonyl)piperazin-1-yl)phenyl)piperidine-2,6-dione]: the Emax was found to be 31%.

Take `Nc1nnc(-c2ccccc2O)cc1N1CCC(C(=O)N2CC3(CCN(C(=O)COc4ccc5c(c4)C(=O)N(C4CCC(=O)NC4=O)C5=O)CC3)C2)(c2ccccc2)CC1` (stereo not shown) [Example 162, 5-(2-(2-(1-(3-amino-6-(2-hydroxyphenyl)pyridazin-4-yl)-4-phenylpiperidine-4-carbonyl)-2,7-diazaspiro[3.5]nonan-7-yl)-2-oxoethoxy)-2-(2,6-dioxopiperidin-3-yl)isoindoline-1,3-dione]: the DC50 amounted to 299 nM and the Emax was determined as 57%. The matching figures for `Nc1nnc(-c2ccccc2O)cc1N1CCC(OCC(=O)NC2CCN(C(=O)C3CCN(c4ccc5c(c4)C(=O)N(C4CCC(=O)NC4=O)C5=O)CC3)CC2)(c2ccccc2)CC1` (stereo not shown) [Example 196, 2-[[1-[3-amino-6-(2-hydroxyphenyl)pyridazin-4-yl]-4-phenyl-4-piperidyl]oxy]-N-[1-[1-[2-(2,6-dioxo-3-piperidyl)-1,3-dioxo-isoindolin-5-yl]piperidine-4-carbonyl]-4-piperidyl]acetamide]: 51 nM and 65%.

Turning to `Nc1nnc(-c2ccccc2O)cc1N1CCN(c2cccc(OCCN3CCN(C(=O)CCCCCCNc4cccc5c4C(=O)N(C4CCC(=O)NC4=O)C5=O)CC3)c2)C2(CC2)C1` (stereo not shown) [Example 5, 4-[[7-[4-[2-[3-[7-[3-amino-6-(2-hydroxyphenyl)pyridazin-4-yl]-4,7-diazaspiro[2.5]octan-4-yl]phenoxy]ethyl]piperazin-1-yl]-7-oxo-heptyl]amino]-2-(2,6-dioxo-3-piperidyl)isoindoline-1,3-dione], the DC50 was 66 nM and the Emax was 60%.
